# Tests used:
# purified human platelets = assay: Fluo-4 staining of purified platelets (platelet activation); format: cell-based; settings: Fluo-4, with 2 mM calcium chloride
# Source text: FIGS. 6A and 6B provide further evidence of the functionality of the purified human platelets. […] Dull green fluorescence indicates functional but inactivated platelets. To activate platelets so they can begin to aggregate to initiate the blood clotting process, calcium ions should be at a significant concentration within the platelet cytoplasm.
# [1] = system: inner mitochondrial membrane potential of human platelets; settings: JC-1 2 μM, purified human platelets
# Experimental: In FIG. 5A, platelets are stained with mitochondrial inner membrane sensitive dye JC-1(2 μM) (630× magnification). […] The red stained mitochondria reflect mitochondria with a Wm capable of supporting ATP production. […] FCCP is an uncoupler, a chemical that destroys the inner mitochondrial membrane potential Wm.
# [2] = system: isolated human platelet mitochondria; assay: ATP levels in isolated mitochondria incubated with supplement (chemiluminescence assay); format: biochemical; settings: 2.0 micromolar (maximum increase)
# Experimental: Experiment: Aliquots of isolated human platelet mitochondria were incubated for different amounts of time in the presence of differing concentrations of L-carnitine, a compound known to stimulate the uptake and metabolism of fat molecules for use by the mitochondria to produce ATP. Along the X-axis of this graph, the numbers 1, 2, 3, and 4 refer to 0, 0.2 micromolar, 2.0 micromolar, and 20 micromolar concentrations of L-carnitine in the mitochondrial incubation buffer. The mitochondrial aliquots in hatched columns (Series 1) were incubated for 20 minutes in the presence of the L-carnitine while the mitochondrial aliquots in non-hatched columns (Series 2) were incubated for 60 minutes in the presence of L-carnitine. After these incubation times, the samples were processed to measure ATP by a very sensitive chemiluminescence assay.
smiles,measurement,setting,value
CNc1ccc2oc(C[C@H]3O[C@@]4(CC[C@H]3C)O[C@H]([C@H](C)C(=O)c3ccc[nH]3)[C@H](C)C[C@H]4C)nc2c1C(=O)O [A23187],effect on Fluo-4 green fluorescence (platelet activation),purified human platelets,much more intense green fluorescence
"N#CC(C#N)=NNc1ccc(OC(F)(F)F)cc1 [FCCP, Carbonyl cyanide-4-(trifluoromethoxy)phenylhydrazone]",effect on JC-1 red fluorescence (functional mitochondria),[1],elimination of the red fluorescence
C[N+](C)(C)C[C@H](O)CC(=O)[O-] [L-carnitine],increase in ATP levels,[2]; 20 minute incubation (Series 1),47%
same,increase in ATP levels,[2]; 60 minute incubation (Series 2),80%

# Reference: patent US20190048365A1, “MITOCHONDRIAL MICROINJECTION OF OOCYTES” (Eastern Virginia Medical School, priority 2015, published 2019)
